Legend:
mTORC1 = biological target: T1, mTORC1 (Homo sapiens, UniProt P42345+P62942); assay: Inhibition assay for mTORC1: phosphorylation of pS6K at Thr389, AlphaLISA SureFire in PC3 cells; format: cell-based; settings: PC3 cells, 24 hours treatment, pS6K Thr389; analogs substituted at C40 and C16 (C16 diastereomer mixtures not isolated); read-out: pIC50 mTORC1 (converted)
T1 construct: endogenous in cells; host or cells: PC3 cells (human prostate adenocarcinoma)
Experimental: (§1) The IC50s of the inhibition of mTORC1 and mTORC2 were determined in vitro by determining the phosphorylation of pS6K at position Thr389 (mTORC1 inhibition) and pAkt at Ser473 (mTORC2 inhibition). In vitro studies were performed with AiphaLISA® technology using PC3 cells (Prostate Adenocarcinoma; Human (Homo sapiens)). The cells were seeded in 96 well plates and were treated for 24 hours with the different compounds. […] All analysis were performed using GraphPad Prism 7.0 (GraphPad Software, San Diego, USA).
Tables 5-7 include PIC50 values for mTORC1 of selected compounds; with compounds having an PIC50 for mTORC1 of >9.5 as A, 8.5 to 9.5 as B, and less than 8.5 as C.

mTORC2 = biological target: T2, mTORC2 (Homo sapiens, UniProt P42345+P62942); assay: Inhibition assay for mTORC2: phosphorylation of pAkt at Ser473, AlphaLISA SureFire in PC3 cells; format: cell-based; settings: PC3 cells, 24 hours treatment, analogs substituted at C40 and C16 (C16 diastereomer mixtures not isolated), read-out: pIC50 mTORC2 (converted)
T2 construct: endogenous in cells; host or cells: PC3 cells (human prostate adenocarcinoma)
Experimental: as §1, with “USA). […]” for “USA).”

## COCCOC1C[C@@H]2CC[C@@H](C)[C@@](O)(O2)C(=O)C(=O)N2CCCCC2C(=O)O[C@H]([C@H](C)C[C@@H]2CC[C@@H](OCCCN3CCOCC3)[C@H](OC)C2)CC(=O)[C@H](C)/C=C(\C)[C@@H](O)[C@@H](OC)C(=O)[C@H](C)C[C@H](C)/C=C/C=C/C=C/1C (stereo partly shown) [Compound 48]
mTORC1
  IC50: < 0.000316 µM
mTORC2
  IC50: 1 to 10 µM

## CO[C@@H]1C[C@H](C[C@@H](C)[C@@H]2CC(=O)[C@H](C)/C=C(\C)[C@@H](O)[C@@H](OC)C(=O)[C@H](C)C[C@H](C)/C=C/C=C/C=C(\C)C(OCc3ccccc3)C[C@@H]3CC[C@@H](C)[C@@](O)(O3)C(=O)C(=O)N3CCCCC3C(=O)O2)CC[C@H]1OC(=O)NCCc1ccccc1 (stereo partly shown) [Compound 117]
mTORC1
  IC50: < 0.000316 µM
mTORC2
  IC50: < 1 µM

## CO[C@@H]1C[C@H](C[C@@H](C)[C@@H]2CC(=O)[C@H](C)/C=C(\C)[C@@H](O)[C@@H](OC)C(=O)[C@H](C)C[C@H](C)/C=C/C=C/C=C(\C)C(OCCO)C[C@@H]3CC[C@@H](C)[C@@](O)(O3)C(=O)C(=O)N3CCCCC3C(=O)O2)CC[C@H]1OCCCO (stereo partly shown) [Compound 10]
mTORC1
  IC50: < 0.000316 µM
mTORC2
  IC50: > 10 µM

## CO[C@@H]1C[C@H](C[C@@H](C)[C@@H]2CC(=O)[C@H](C)/C=C(\C)[C@@H](O)[C@@H](OC)C(=O)[C@H](C)C[C@H](C)/C=C/C=C/C=C(\C)C(OC[C@@H](O)c3ccccc3)C[C@@H]3CC[C@@H](C)[C@@](O)(O3)C(=O)C(=O)N3CCCCC3C(=O)O2)CC[C@H]1OCCCN1CCOCC1 (stereo partly shown) [Compound 92]
mTORC1
  IC50: < 0.000316 µM
mTORC2
  IC50: 1 to 10 µM

## COCCOC1C[C@@H]2CC[C@@H](C)[C@@](O)(O2)C(=O)C(=O)N2CCCCC2C(=O)O[C@H]([C@H](C)C[C@@H]2CC[C@@H](OCCN3C[C@@H](C)O[C@@H](C)C3)[C@H](OC)C2)CC(=O)[C@H](C)/C=C(\C)[C@@H](O)[C@@H](OC)C(=O)[C@H](C)C[C@H](C)/C=C/C=C/C=C/1C (stereo partly shown) [Compound 81]
mTORC1
  IC50: 0.000316 to 0.00316 µM
mTORC2
  IC50: 1 to 10 µM

## CO[C@@H]1C[C@H](C[C@@H](C)[C@@H]2CC(=O)[C@H](C)/C=C(\C)[C@@H](O)[C@@H](OC)C(=O)[C@H](C)C[C@H](C)/C=C/C=C/C=C(\C)C(OCCO)C[C@@H]3CC[C@@H](C)[C@@](O)(O3)C(=O)C(=O)N3CCCCC3C(=O)O2)CC[C@H]1OC(=O)N(C)CCCN(C)C (stereo partly shown) [Compound 77]
mTORC1
  IC50: 0.000316 to 0.00316 µM
mTORC2
  IC50: > 10 µM

## CO[C@@H]1CC[C@@H](C[C@@H](C)[C@@H]2CC(=O)[C@H](C)/C=C(\C)[C@@H](O)[C@@H](OC)C(=O)[C@H](C)C[C@H](C)/C=C/C=C/C=C(\C)C(OCCCCO)C[C@@H]3CC[C@@H](C)[C@@](O)(O3)C(=O)C(=O)N3CCCCC3C(=O)O2)C[C@H]1OC (stereo partly shown) [Compound 24]
mTORC1
  IC50: < 0.000316 µM
mTORC2
  IC50: > 10 µM

## COCCCO[C@@H]1CC[C@@H](C[C@@H](C)[C@@H]2CC(=O)[C@H](C)/C=C(\C)[C@@H](O)[C@@H](OC)C(=O)[C@H](C)C[C@H](C)/C=C/C=C/C=C(\C)C(OCCOCCOC)C[C@@H]3CC[C@@H](C)[C@@](O)(O3)C(=O)C(=O)N3CCCCC3C(=O)O2)C[C@H]1OC (stereo partly shown) [Compound 23]
mTORC1
  IC50: < 0.000316 µM
mTORC2
  IC50: > 10 µM

## CO[C@@H]1C[C@H](C[C@@H](C)[C@@H]2CC(=O)[C@H](C)/C=C(\C)[C@@H](O)[C@@H](OC)C(=O)[C@H](C)C[C@H](C)/C=C/C=C/C=C(\C)C(OCCc3ccccc3)C[C@@H]3CC[C@@H](C)[C@@](O)(O3)C(=O)C(=O)N3CCCCC3C(=O)O2)CC[C@H]1OC(=O)N(CCO)CCO (stereo partly drawn) [Compound 112, [(1R,2R,4S)-4-[(2R)-2-[(1R,9S,12S,15R,16E,18R,19R,21R,23S,24E,26E,28E,32S,35R)-1,18-dihydroxy-19-methoxy-15,17,21,23,29,35-hexamethyl-2,3,10,14,20-pentaoxo-30-(2-phenylethoxy)-11,36-dioxa-4-azatricyclo[30.3.1.0^4,9]hexatriaconta-16,24,26,28-tetraen-12-yl]propyl]-2-methoxy-cyclohexyl] N,N-bis(2-hydroxyethyl)carbamate]
mTORC1
  IC50: < 0.000316 µM
mTORC2
  IC50: < 1 µM

## COCCCO[C@@H]1CC[C@@H](C[C@@H](C)[C@@H]2CC(=O)[C@H](C)/C=C(\C)[C@@H](O)[C@@H](OC)C(=O)[C@H](C)C[C@H](C)/C=C/C=C/C=C(\C)C(OCCOC)C[C@@H]3CC[C@@H](C)[C@@](O)(O3)C(=O)C(=O)N3CCCCC3C(=O)O2)C[C@H]1OC (stereo partly shown) [Compound 14]
mTORC1
  IC50: < 0.000316 µM
mTORC2
  IC50: > 10 µM

## CO[C@@H]1C[C@H](C[C@@H](C)[C@@H]2CC(=O)[C@H](C)/C=C(\C)[C@@H](O)[C@@H](OC)C(=O)[C@H](C)C[C@H](C)/C=C/C=C/C=C(\C)C(OCCO)C[C@@H]3CC[C@@H](C)[C@@](O)(O3)C(=O)C(=O)N3CCCCC3C(=O)O2)CC[C@H]1OCCCN1CCO[C@H](C)C1 (stereo partly shown) [Compound 43]
mTORC2
  IC50: 1 to 10 µM

## CO[C@@H]1C[C@H](C[C@@H](C)[C@@H]2CC(=O)[C@H](C)/C=C(\C)[C@@H](O)[C@@H](OC)C(=O)[C@H](C)C[C@H](C)/C=C/C=C/C=C(\C)C(OCCOCCO)C[C@@H]3CC[C@@H](C)[C@@](O)(O3)C(=O)C(=O)N3CCCCC3C(=O)O2)CC[C@H]1OCCO (stereo partly shown) [Compound 69]
mTORC1
  IC50: 0.000316 to 0.00316 µM
mTORC2
  IC50: > 10 µM

## CO[C@@H]1C[C@H](C[C@@H](C)[C@@H]2CC(=O)[C@H](C)/C=C(\C)[C@@H](O)[C@@H](OC)C(=O)[C@H](C)C[C@H](C)/C=C/C=C/C=C(\C)C(OCCO)C[C@@H]3CC[C@@H](C)[C@@](O)(O3)C(=O)C(=O)N3CCCCC3C(=O)O2)CC[C@H]1OCCCN1CCOC(C)(C)C1 (stereo partly shown) [Compound 12]
mTORC1
  IC50: < 0.000316 µM
mTORC2
  IC50: > 10 µM

## CO[C@@H]1C[C@H](C[C@@H](C)[C@@H]2CC(=O)[C@H](C)/C=C(\C)[C@@H](O)[C@@H](OC)C(=O)[C@H](C)C[C@H](C)/C=C/C=C/C=C(\C)C(OCCCCO)C[C@@H]3CC[C@@H](C)[C@@](O)(O3)C(=O)C(=O)N3CCCCC3C(=O)O2)CC[C@H]1OCCO (stereo partly shown) [Compound 63]
mTORC1
  IC50: < 0.000316 µM
mTORC2
  IC50: 1 to 10 µM

## CO[C@@H]1C[C@H](C[C@@H](C)[C@@H]2CC(=O)[C@H](C)/C=C(\C)[C@@H](O)[C@@H](OC)C(=O)[C@H](C)C[C@H](C)/C=C/C=C/C=C(\C)C(OCC3COC3)C[C@@H]3CC[C@@H](C)[C@@](O)(O3)C(=O)C(=O)N3CCCCC3C(=O)O2)CC[C@H]1OCCCO (stereo partly shown) [Compound 84]
mTORC1
  IC50: 0.000316 to 0.00316 µM
mTORC2
  IC50: 1 to 10 µM

## CO[C@@H]1C[C@H](C[C@@H](C)[C@@H]2CC(=O)[C@H](C)/C=C(\C)[C@@H](O)[C@@H](OC)C(=O)[C@H](C)C[C@H](C)/C=C/C=C/C=C(\C)C(OCC3COC3)C[C@@H]3CC[C@@H](C)[C@@](O)(O3)C(=O)C(=O)N3CCCCC3C(=O)O2)CC[C@H]1OCCO (stereo partly shown) [Compound 75]
mTORC1
  IC50: 0.000316 to 0.00316 µM
mTORC2
  IC50: 1 to 10 µM

## COCCOC1C[C@@H]2CC[C@@H](C)[C@@](O)(O2)C(=O)C(=O)N2CCCCC2C(=O)O[C@H]([C@H](C)C[C@@H]2CC[C@@H](OC(=O)NCCN3CCOCC3)[C@H](OC)C2)CC(=O)[C@H](C)/C=C(\C)[C@@H](O)[C@@H](OC)C(=O)[C@H](C)C[C@H](C)/C=C/C=C/C=C/1C (stereo partly shown) [Compound 30]
mTORC1
  IC50: < 0.000316 µM
mTORC2
  IC50: 1 to 10 µM

## CO[C@@H]1C[C@H](C[C@@H](C)[C@@H]2CC(=O)[C@H](C)/C=C(\C)[C@@H](O)[C@@H](OC)C(=O)[C@H](C)C[C@H](C)/C=C/C=C/C=C(\C)C(OCCO)C[C@@H]3CC[C@@H](C)[C@@](O)(O3)C(=O)C(=O)N3CCCC[C@H]3C(=O)O2)CC[C@H]1OCCCN1CCO[C@H](C)C1 (mixture of isomers) [Compound 13]
mTORC2
  IC50: > 10 µM
